“And” between values parts separate entries of the source, which are not always exact repeats. Identical values can stand only once. Toxic doses and inconclusive results are not listed.
Test system: BDF1 mice, intracerebral L1210 leukemia, survival T/C
Assay: NCI In Vivo Anticancer Drug Screen. Data for tumor model L1210 Leukemia (intracerebral) in B6D2F1 (BDF1) mice
Conditions: endpoint: mean survival time, higher = longer survival
Procedure, shortened: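 Transplantable tumour-bearing mice, compound-treated vs vehicle controls; read-out survival, reported as T/C ratio.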

For `Cc1[nH]c(=O)[nH]c(=O)c1N(CCF)CCCl`, the T/C (dose: 3.5 mg/kg/injection, schedule: Q01DX009 (ip), vehicle: Klucel (hydroxypropylcellulose) (HPC)) was 97 % of control, the T/C (dose: 7.0 mg/kg/injection, schedule: Q01DX009 (ip), vehicle: Klucel (hydroxypropylcellulose) (HPC)) was 88 % of control and the T/C (dose: 14.0 mg/kg/injection, schedule: Q01DX009 (ip), vehicle: Klucel (hydroxypropylcellulose) (HPC)) was 111 % of control. The T/C (dose: 28.0 mg/kg/injection, schedule: Q01DX009 (ip), vehicle: Klucel (hydroxypropylcellulose) (HPC)) was 94 % of control.

With `OCCOCCN1CCN(CCCN2c3ccccc3Sc3ccc(C(F)(F)F)cc32)CC1` the T/C (dose: 18.7 mg/kg/injection, schedule: Q04DX003 (ip), vehicle: saline) was 106 % of control, the T/C (dose: 37.5 mg/kg/injection, schedule: Q04DX003 (ip), vehicle: saline) was 106 % of control and the T/C (dose: 75.0 mg/kg/injection, schedule: Q04DX003 (ip), vehicle: saline) was 106 % of control.

For `COc1cc([C@@H]2c3cc4c(cc3[C@@H](OC3OC5COC(C)OC5C(O)C3O)[C@H]3COC(=O)[C@H]23)OCO4)cc(OC)c1O` (stereo partly drawn), the T/C (dose: 2.0 mg/kg/injection, schedule: Q01DX009 (oral), vehicle: Klucel (hydroxypropylcellulose) (HPC)) was 108 % of control, the T/C (dose: 4.0 mg/kg/injection, schedule: Q01DX009 (oral), vehicle: Klucel (hydroxypropylcellulose) (HPC)) was 118 % of control and the T/C (dose: 12.0 mg/kg/injection, schedule: Q04DX003 (ip), vehicle: saline) was 109 % of control. The T/C (dose: 16.0 mg/kg/injection, schedule: Q01DX009 (oral), vehicle: Klucel (hydroxypropylcellulose) (HPC)) was 116 % of control, the T/C (dose: 18.0 mg/kg/injection, schedule: Q04DX003 (ip), vehicle: saline) was 108 % of control and the T/C (dose: 27.0 mg/kg/injection, schedule: Q04DX003 (ip), vehicle: saline) was 109 % of control. The T/C (dose: 32.0 mg/kg/injection, schedule: Q01DX009 (oral), vehicle: Klucel (hydroxypropylcellulose) (HPC)) was 94 % of control, the T/C (dose: 40.0 mg/kg/injection, schedule: Q04DX003 (ip), vehicle: saline) was 118 % of control and the T/C (dose: 60.0 mg/kg/injection, schedule: Q04DX003 (ip), vehicle: saline) was 110 % of control.

With `O=C(O)CCCc1ccc(N(CCCl)CCCl)cc1` the T/C (dose: 18.0 mg/kg/injection, schedule: Q01DX001 (ip), vehicle: carboxymethylcellulose (CMC)) was 105 % of control, the T/C (dose: 27.0 mg/kg/injection, schedule: Q01DX001 (ip), vehicle: carboxymethylcellulose (CMC)) was 112 % of control and the T/C (dose: 41.0 mg/kg/injection, schedule: Q01DX001 (ip), vehicle: carboxymethylcellulose (CMC)) was 112 % of control.

In the case of `CN(N=O)C(=O)Nc1ccc(C(=O)O)cc1`, the T/C (dose: 60.0 mg/kg/injection, schedule: Q01DX001 (ip), vehicle: carboxymethylcellulose (CMC)) is reported as 110 % of control and the T/C (dose: 120.0 mg/kg/injection, schedule: Q01DX001 (ip), vehicle: carboxymethylcellulose (CMC)) is reported as 114 % of control.

`O=NN(CCCl)C(=O)NC1CSCSC1` was tested, and the T/C (dose: 2.0 mg/kg/injection, schedule: Q01DX001 (ip), vehicle: other) was 103 % of control and 98 % of control, the T/C (dose: 15.0 mg/kg/injection, schedule: Q01DX001 (ip), vehicle: other) was 153 % of control and 196 % of control and the T/C (dose: 22.0 mg/kg/injection, schedule: Q01DX001 (ip), vehicle: other) was 360 % of control and 379 % of control. For the same compound, the T/C (dose: 50.0 mg/kg/injection, schedule: Q01DX001 (ip), vehicle: other) was 89 % of control.

For `CS(=O)(=O)Nc1ccc(Nc2c3ccccc3nc3cc(N)ccc23)cc1`, the T/C (dose: 1.0 mg/kg/injection, schedule: Q01DX009 (ip), vehicle: saline) was 120 % of control, the T/C (dose: 1.0 mg/kg/injection, schedule: Q01DX009 (sc), vehicle: saline) was 96 % of control and the T/C (dose: 2.0 mg/kg/injection, schedule: Q01DX009 (ip), vehicle: saline) was 98 % of control. The T/C (dose: 2.0 mg/kg/injection, schedule: Q01DX009 (sc), vehicle: saline) was 103 % of control and the T/C (dose: 4.0 mg/kg/injection, schedule: Q01DX009 (sc), vehicle: saline) was 104 % of control.

`O=P(NC12CC3CC(CC(C3)C1)C2)(N1CC1)N1CC1` was tested, and the T/C (dose: 9.0 mg/kg/injection, schedule: Q04DX003 (ip), vehicle: Klucel (hydroxypropylcellulose) (HPC)) was 112 % of control, the T/C (dose: 12.0 mg/kg/injection, schedule: Q01DX001 (ip), vehicle: Klucel (hydroxypropylcellulose) (HPC)) was 109 % of control and the T/C (dose: 18.0 mg/kg/injection, schedule: Q01DX001 (ip), vehicle: Klucel (hydroxypropylcellulose) (HPC)) was 117 % of control.

Source: PubChem BioAssay AID252 (DTP/NCI, 2004)
